For data set [1], the target named is T1, adenosine deaminase (Homo sapiens, UniProt P00813).
T1 sequence (P00813 1-363): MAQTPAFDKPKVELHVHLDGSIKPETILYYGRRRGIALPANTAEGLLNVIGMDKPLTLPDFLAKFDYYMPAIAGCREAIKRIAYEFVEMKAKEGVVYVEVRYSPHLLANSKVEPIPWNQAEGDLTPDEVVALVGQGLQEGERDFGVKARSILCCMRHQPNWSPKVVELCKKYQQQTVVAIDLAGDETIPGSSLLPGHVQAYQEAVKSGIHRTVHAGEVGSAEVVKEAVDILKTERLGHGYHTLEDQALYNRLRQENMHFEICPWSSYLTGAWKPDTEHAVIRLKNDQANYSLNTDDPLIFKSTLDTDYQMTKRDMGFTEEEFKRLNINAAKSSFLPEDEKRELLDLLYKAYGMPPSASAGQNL
As to the kind of experiment: biochemical. The method, then: The potency of 2'-chloropentostatin as an adenosine deaminase inhibitor was determined using the following methods. The velocity (in moles/minute/ml) of the reaction of adenosine deaminase with adenosine was measured for several concentrations of the enzyme in the presence of various concentrations of the inhibitor, 2'-chloropentostatin. The data has been plotted in FIG. 1 in the form of an Ackerman-Potter plot (see W. W. Ackerman and V. R. Potter, Proc. Soc. Exp. Biol. Med., 72:1 (1949)).
The values of Vo /Vi =2 for each curve yield the I50 for the enzyme inhibitor at each substrate concentration. These I50 values have been plotted versus substrate concentration in FIG. 3.

Data set [2] has as its system Streptococcus faecalis 05045. As to the kind of experiment: Agar disc diffusion, zone of inhibition vs. Streptococcus faecalis 05045. To be noted: Enterococcus faecalis, 12.7 mm disc, 37°, overnight, read-out: Zone diameter. It is filed as cell-based. The protocol:
Paper disks (12.7 mm in diameter) impregnated with an aqueous solution containing varying amounts of 2'-chloropentostatin were placed on a layer of agar containing AM-10 assay medium (Table 4) and inoculated with Streptococcus faecalis 05045. After incubation at 37° overnight the following zones of inhibition were observed: […]
A general note: A growth-free zone around the sample is the usual read-out of agar diffusion tests.

Data set [3] deals with DNA viruses, especially herpes and vaccinia viruses. To be noted: U.S. Pat. No. 3,616,208; mammals; cited from earlier work.
Data set [4] deals with T1, adenosine deaminase. The settings on record: cited from earlier work.
In data set [5] the target is T1, adenosine deaminase. The settings on record: prior patents, in words; cited from earlier work.

Structures are written as SMILES. pKi: −log10 of the molar value.

Regarding `OC[C@H]1O[C@@H](n2cnc3c2N=CNC[C@H]3O)[C@H](Cl)[C@@H]1O` [2'-chloropentostatin, (R)-3-(2-chloro-2deoxy-beta-D-ribofuranosyl)-3,6,7,8-tetrahydroimidazo[4,5-d][1,3]diazepin-8-ol], the pKi (in general, −log10 of the Ki, conventionally taken in molar units) on adenosine deaminase [1] was 10.00. Moreover, at adenosine deaminase [1] (Ackerman-Potter plot, FIG. 1), the “type of inhibition of adenosine deaminase” value is listed as “"tight-binding" or "pseudo-irreversible" inhibitor”. Also, the zone of inhibition at 0.2 µg/mL in data set [2] (0.2 μg/ml) came to 40 mm. Moreover, in data set [2] (2 μg/ml), the zone of inhibition at 2 µg/mL stood at 47 mm. The zone of inhibition at 20 µg/mL in data set [2] (20 μg/ml) was 55 mm. The zone of inhibition at 200 µg/mL in data set [2] (200 μg/ml) is 61 mm. Also, the zone of inhibition at 2000 µg/mL in data set [2] (2000 μg/ml) came to 64 mm.

`Nc1ncnc2c1ncn2[C@@H]1O[C@H](CO)[C@@H](O)[C@@H]1O` [9-(beta-D-arabinofuranosyl)adenine]: the “treatment of DNA viruses” value in data set [3] is reported as “useful agent for the treatment of DNA viruses”. The “biological efficacy, limitation by deamination/deactivation in vivo” value at adenosine deaminase [4] was “greatly diminished by the rapid deamination”.

With `OC[C@H]1O[C@@H](n2cnc3c2N=CNC[C@H]3O)[C@H](O)[C@@H]1O` [coformycin, (R) -3-(beta-D-ribofuranosyl)-3,6,7,8-tetrahydroimidazo[4,5-d][1,3]diazepin-8-ol], on adenosine deaminase [5], the “inhibition of adenosine deaminase” value is reported as “potent inhibitors of adenosine deaminase”.

The values are drawn from patent US4713372A, “2-chloropentostatin compound having adenosine diaminase inhibitory activity” (Warner-Lambert Company, priority 1985, dated 1987).
